Data as given in patent publication US20080306094A1 (priority 2005, published 2008).
Like-named read-outs stand apart in the source and are kept apart here.

Columns and labels:
Calu-6 tumour xenograft = Calu-6 tumour xenograft in vivo solid tumour model; conditions: once-daily oral, 28 days
HUVEC = HUVEC assay, endothelial cell proliferation; format: cell-based; conditions: Homo sapiens

Structure (SMILES): COc1cc2c(Oc3ccc4[nH]c(C)cc4c3F)ncnc2cc1OCCCN1CCCC1 [AZD2171, 4-(4-fluoro-2-methyl-1H-indol-5-yloxy)-6-methoxy-7-(3-(pyrrolidin-1-yl)propoxy)quinazoline]
- inhibition of growth of Calu-6 tumour xenograft (Calu-6 tumour xenograft; 1.5 mg/kg/day, P<0.01 one-tailed t test): 49%
- inhibition of growth of Calu-6 tumour xenograft (Calu-6 tumour xenograft; 3 mg/kg/day, P<0.0001 one-tailed t test): 69%
- inhibition of growth of Calu-6 tumour xenograft (Calu-6 tumour xenograft; 6 mg/kg/day, P<0.0001 one-tailed t test): 91%
- IC50 (HUVEC; VEGF-stimulated, read-out: IC50, VEGF-stimulated endothelial cell proliferation): 0.4 ± 0.2 nM
- IC50 (HUVEC; basal, read-out: IC50, basal endothelial cell proliferation): > 500 nM
